Reference: paper PMC12807533 (Science (New York, N.Y.), 2025)

Assays:
XanP (His-XanP) = system: T1, XanP (His-XanP)
T1 construct: gene XOC_0142
T1 sequence (G7TIV3 32-261 limits assumed): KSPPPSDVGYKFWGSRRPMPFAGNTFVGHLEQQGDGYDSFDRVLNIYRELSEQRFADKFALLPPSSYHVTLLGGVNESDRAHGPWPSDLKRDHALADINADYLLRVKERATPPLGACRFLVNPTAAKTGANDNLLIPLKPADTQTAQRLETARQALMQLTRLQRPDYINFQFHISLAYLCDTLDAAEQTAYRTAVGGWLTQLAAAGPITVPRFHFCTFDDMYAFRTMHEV

AvrBs2 (AvrBs2-FLAG), sequence (G7TIV7 1-714): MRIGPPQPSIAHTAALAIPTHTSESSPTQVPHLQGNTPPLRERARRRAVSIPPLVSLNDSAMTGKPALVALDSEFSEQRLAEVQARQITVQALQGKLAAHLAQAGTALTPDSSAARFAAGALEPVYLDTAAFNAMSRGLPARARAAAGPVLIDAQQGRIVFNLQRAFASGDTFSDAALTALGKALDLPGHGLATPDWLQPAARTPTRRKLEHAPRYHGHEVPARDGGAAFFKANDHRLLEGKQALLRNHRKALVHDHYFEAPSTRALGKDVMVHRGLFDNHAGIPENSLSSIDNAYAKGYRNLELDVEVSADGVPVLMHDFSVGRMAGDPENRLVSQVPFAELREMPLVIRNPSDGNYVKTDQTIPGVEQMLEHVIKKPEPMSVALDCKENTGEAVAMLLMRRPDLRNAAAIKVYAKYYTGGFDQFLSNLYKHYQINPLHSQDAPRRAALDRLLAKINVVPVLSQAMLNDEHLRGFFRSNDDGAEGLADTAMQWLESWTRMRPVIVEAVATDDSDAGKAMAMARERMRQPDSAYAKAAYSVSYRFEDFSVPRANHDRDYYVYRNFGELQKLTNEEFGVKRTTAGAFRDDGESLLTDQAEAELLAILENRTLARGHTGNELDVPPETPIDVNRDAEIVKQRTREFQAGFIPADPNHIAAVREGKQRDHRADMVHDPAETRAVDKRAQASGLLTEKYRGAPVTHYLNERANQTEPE

SMILES	TLC of hydrolysis products (XanP (His-XanP))	TLC and HILIC-ESI-MS of in vitro xanthosan synthesis (AvrBs2 (AvrBs2-FLAG))
O=P(O)(O)O[C@H]1O[C@H](CO)[C@H](O)[C@H](O)[C@H]1O [Gal-1-P]	the other product migrated similarly to Gal-1-P, but not Gal-6-P	–
O=P1(O)OC[C@H]2O[C@H](OP(=O)(O)OC[C@H]3O[C@H](O1)[C@H](O)[C@@H](O)[C@H]3O)[C@H](O)[C@@H](O)[C@H]2O [xanthosan, bis-(1,6)-cyclic dimeric α-D-galactose-phosphate]	–	AvrBs2 converts UDP-α-D-galactose into xanthosan
